This note sets out measurements from patent US7415306B2, “Transdermal delivery system for anti-emetic medication” (TransPharma Medical Ltd., priority 2002, dated 2008).

The nature of data set [1]: Pharmacokinetic study of transdermal drug delivery in rats (granisetron hydrogel patch with or without ViaDerm). Format: in vivo, Male Sprague-Dawley rats. The following applies: 3% granisetron HCl hydrogel patch. As for the experimental part:
Male Sprague-Dawley rats (400-500 g, Harlan Laboratories Ltd., Jerusalem, Israel) were anesthetized (5 mg/kg ketamine i.p.) and were placed dorsally. Anesthesia was maintained until the end of the transdermal treatment and during blood sampling by injections of 0.1 ml ketamine and Xyalzine (60-80 mg/ml) every 30-40 min. The abdominal skin was shaved and cleaned with isopropyl alcohol. After 30 minutes, the transepidermal water loss was measured in order to verify skin integrity and RF-micro-channeling took place on the abdominal skin of a test group. […] A granisetron patch, made of a solution of 3% granisetron HCl soaked in a hydrogel sheet of 1.4 cm , was then attached to the skin surface for 24 hr in special containers glued to the skin by silicon medical glue. Blood samples were taken from the heart into heparinized tubes. After centrifugation, plasma samples were kept at −20° C. until analyzed for drug levels by HPLC.
The procedure was basically performed according to Kudoh et al, J. Chromatography 660(1994) p. 205. Phosphate buffer (500 μl, pH 7, 67 mM) was mixed with one ml plasma. […] Aliquots (30 μl) from each sample were injected into the HPLC (1050 HP), equipped with a pre-packed C8 column (BDS-Hypersil, UK; C-8 100×3.0 mm, 3 μm), an auto-sampler, and a fluorescence detector (Model 1046A). Granisetron was detected by excitation at 305 nm and emission at 365 nm. […]

Data set [2] can be described thus: Clinical patch-size study with granisetron patches and ViaDerm (plasma levels, erythema/edema).
Text: The purpose of the first phase study was to determine patch size per drug dose. The target population for the study was healthy male and female volunteers who signed informed consent and fulfilled the following inclusion criteria: • 1. Are capable of understanding and signing an informed consent • 2. Are between the ages of 18 and 60 years • 3. Are medically stable • 4. Have fair skin color that enable to observe erythema and/or edema. • 5. Have two hands with no obvious marks, bruises, cuts, and abrasions on the back of the hand. • 6. Hemoglobin more than 12 gm % in females and more than 14 gm % in males.
Granisetron HCl patches were applied on the skin of the upper arm and fore arm of healthy adult volunteers. […] Irritation was examined by monitoring edema and erythema as described in Example 6. […]
ViaDerm performance was assessed by a study conducted with twenty healthy, adult volunteers, 10 males and 10 females. […] Measuring Transdermal Water Loss (TEWL) at a skin site treated with ViaDerm in comparison to an adjacent untreated skin assessed formation of micro-channels. Safety of ViaDerm was evaluated by measuring irritation (erythema and edema) at the treatment site using a scale of zero to eight in accordance with Draize irritation index (Table 4). The response to irritation induced by ViaDern was assessed by a Cumulative Irritation Index (Table 5). […]
A short description of data set [3]: Clinical bioavailability study with granisetron patches and ViaDerm versus oral delivery (plasma levels, irritation). Conditions: human, 1 tablet of 1 mg twice daily, reached only for short time periods, unsteady profile.
Experimental: Granisetron HCl patches were applied on the skin of the upper arm and fore arm of healthy adult volunteers. […] Irritation was examined by monitoring edema and erythema as described in Example 6.
The experiment was conducted with six subjects, in a crossover manner. Each subject received four different treatments, i.e. various administration methods at various sites of patch application, with at least six days washout period between treatments.
ViaDerm performance was assessed by a study conducted with twenty healthy, adult volunteers, 10 males and 10 females. […] Each subject received 10 treatments, in a randomized manner such that a given treatment was applied to different subjects and/or in each subject at different sites. • Treatment protocol. The treatment sites were the inner arm and hand. […] Measuring Transdermal Water Loss (TEWL) at a skin site treated with ViaDerm in comparison to an adjacent untreated skin assessed formation of micro-channels. […]

Where a name gives a salt, the structure may show the parent alone.

In the case of `CN1C2CCCC1CC(NC(=O)c1nn(C)c3ccccc13)C2` (centres unmarked) [granisetron, granisetron hydrochloride], the “granisetron plasma level (peak)” value in data set [1] (rats not treated with ViaDerm, peak at 2.5 hours after application) is “lower than 50 ng/ml”. The granisetron plasma level result in data set [1] (rats pretreated with ViaDerm, reached during first 12 hours, maintained for additional 12 hours) is given as “above 200 ng/ml”. Moreover, the “maximal concentration of granisetron in human plasma versus patch size” value in data set [2] (ViaDerm + patches of 2.8, 5.6 and 8.4 cm^2) is on record as “linearly correlated with the size of patch”. In data set [2] (human, ViaDerm + granisetron patch (3% drug) covering 5.6 cm^2, applied 24 hours), the maximal plasma concentration entry is “above 4 ng/ml”. The “plasma levels of granisetron” value in data set [3] is “above 4 ng/ml”.
